Experimental data published in patent EP0938338B1, “CARRIER COMPOSITION FOR INFLUENCING THE TIGHT JUNCTION PERMEABILITY” (Ghyssaert, Joris Rosa Michael, priority 1996, dated 1998).
≈ marks a conversion by molar mass, not a printed value.

Experiments:
large intestine = experiment: Colon perfusion: secretory effect of rhein (water, sodium, K+) and its antagonism; format: in vivo
colon descendens = experiment: Temperature increase in ligated colon segment (sample versus reference segment); format: in vivo, Guinea pigs
Experimental: While animals are thermally unstable during narcosis special precautions had to be taken to overcome this problem. Guinea pigs (400 g, males) were fasted 12 hours before the experiment. Anaesthesia was induced by intraperitoneal injection of Ethylurethane (0.9 g.kg^-1). The guinea pig was fixed on a thermostated operation table, monitored by a thermosensible detector rectally applied. Heating was carried out by the operation table itself and two lamps located above the animal.
In the evacuated colon descendens two segments were localised. In both segments, later called sample- and reference segment small measuring electrodes were fixed, displaying continuously the absolute temperature until 0.001°C. Two other electrodes linked by a Wheatstone bridge connection were equally located in the two segments. They measure continuously the temperature difference between the two segments.
In both segments a smooth catheter (I.D. 0.3 mm) was fixed, winded several times in the intestinal cavity. In this catheters 100 µl of the reference- and sample solution was injected.
The intestinal cavity was sealed again. This set up enables the injection of solutes at body temperature. The animal was thermally isolated by gauge. After ten minutes, the wheatstone bridge was equilibrated. An injection of 100 µl air evacuates the catheters so injecting the solutions at perfect body temperature.
The electrodes displaying the absolute temperature were calibrated in a thermostatically controlled water bath between 36.0°C and 38.0°C. […] The electrodes measuring the temperature difference were calibrated by two thermostatically controlled water baths with temperature differences between 0.0°C and 2.0°C. The rectal temperature was directly monitored in °C.
• * reference solution: • Krebsolution - TRIS.HCl buffer 0.1 M pH 8.0 (9/1) osmotic pressure equals 0.9 % Sodium Chloride • * Sample solutions : • - Rhein saturated in reference solution.

[1] = test system: paracellular permeability; experiment: 99mTc-EDTA transfer from ligated colon segment to kidneys/urine bladder (mucosal permeability); format: in vivo, Guinea pigs; conditions: for colonic permeability: 99mTc-EDTA in ligated colon segment, one hour, Fig. 2 / Fig. 3; for transfer from lumen to blood of 99mTc-EDTA: after previous administration of the uncoupler
Experimental: Guinea pigs of either sex (250-280 g) were fed for one week with pelleted food containing 0.1% 1,8 dihydroxyanthraquimone. For this purpose the necessary amount of Anthraquinone was solved in ether and sprayed over the pelleted foods. The ether was evaporated. The calculated daily administration of 1,8 dihydroxyantraquinone was 20 mg.
The animals were fasted 6 hours before the experiment in order to empty the proximal colonic segment.
Anaesthesia was induced by peritoneal injection of ethyl urethane (0.9 g.kg^-1) and body temperature was maintained at 37°C by a thermostatically controlled heated table.
A midventral abdominal incision was made and the large intestine exposed.
In this ligated colon segment 0.25 ml ^99mTcEDTA was injected. Immediately the abdominal cavity was closed.
The biodistribution of the labelled complex was visualised by a γ-camera Pho/GAMMA®HP-Nuclear; Chicago fitted with a low energy ([…]) convergating collimator.
After one hour the guinea pigs were killed with chloroform and both kidneys, the ligated colon segment and the liver were isolated. Urine was collected from the urine bladder using a syringe. The activity of the samples was measured by a Gamma-counter (Berthold, Gamma-sample changer BF 5300) positioned on 140 ± 10 keV.
In order to determine the influence of the salicylic acid and dinitrophenol on mucosal permeability, 0.25 ml of salicylic acid was injected in the ligated colon segment of untreated animals. After an exposure time of 30 minutes the labelled ^99mTc-EDTA-complex was injected. The procedure continued as described for 1,8 dihydroxyantraquinone.
The instant kit method of Eckelman and Richards (J. Nucl. Med. 11, 761(1970)) was modified. 5.0 mg of Na2EDTA and 0.5 mg of snCl2.2H20/ml was filtered through a 0.22 µ membrane filter and conserved in 3 ml vacuum serum tubes. The kits were kept at -20°C.
Prior to the experiment 1 ml sterile eluate of a ^99mTc-generator (Sterow™ 99m Byk-Malincrodt) with an activity of 2-10 µ Ci was added to the thawed kit. After mixing the efficiency of the complex formulation was assessed by paper chromatography (Whatman N° 1) using physiological water and methylethylketone as mobile phase. Detection was made with a Berthold Scanner. More than 98% of the present ^99mTc was complexed.
100 mg salicylic acid or dinitrophenol was solved in bidistilled water. Sodium hydroxide N was added until complete dissolution. pH was adjusted on 8.5. Water was added to a volume of 10 ml. Osmolarity was adjusted (275 mOsm/1) by adding 23 and 14 mg sodium chloride respectively.

[2] = Saturation concentration in reference solution; conditions: krebs - tris.hcl buffer, pH 8, aqueous buffer
blood glucose level [3] = experiment: Rectal perfusion of insulin, blood glucose versus intramuscular injection (set up 1); format: in vivo, guinea pigs and rats; conditions: uncoupler added to perfusion, total concentration 0.5 mg
Experimental: The resorption of Insulin has been monitored by the lowering of the blood glucose level versus an intramuscular injection of an equivalent dose. Glucose was monitored while the determination is simple and inexpensive. However, on several experiments the Insulin level was measured by RIA (Radio Immuno Assays) methods.
Initially the resorption of Insulin was monitored following a perfusion on anaesthetised animals. Anaesthesia was induced by abdominal injection of Ethylurethane (0.9 g/kg).
The circulating solution was principally isotonic Sodium chloride (physiological saline) to which the appropriate Insulin was added in order to obtain the required concentrations.
The used Insulin was […]™ (Novo Nordisk); Human Biosynthetic Insulin.
The perfusion itself was executed on a new developed manner in order to allow a perfusion without an operation. Blood was sampled on the jugular vein.
The device used allows an easy rectal application. It allows an exact positioning and an identical length of perfused colon.
The total circulating fluid was 8 ml. As tubing Isoversinic was used. At intervals 50 µl blood was sampled and used for the glucose determinations. These perfusion experiments were carried out on guinea pigs and rats. […]

[4] = test system: monocellular mucosal layer of the guinea-pig colon; experiment: ATP content of lyophilised colon mucosa (firefly bioluminescence); format: in vivo, Guinea pigs; conditions: 3.76 mg rhein in ligated colonic segment
Experimental: The ATP content was measured in the monocellular mucosal layer of the guinea-pig colon.
Guinea pigs with a weight (mean ± 400 g) were fasted 12 hours before the experiments. Anaesthesia was induced by intraperitoneal injection of Ethylurethane (0.9 g.kg^-1).
The segment was filled with 4.0 ml of the solution to be tested. The intestinal cavity was immediately sealed again. After the experiment the colon segment was removed and submerged in liquid Nitrogen. The gut specimen was transferred to the precooled lyophylisator (-80°C, sample -20°C) and lyophilised during 36 hours. Microscopically, the mono cellular mucosa layer was scraped off. One segment, proceeding this way normally yield 1.5 - 2.0 mg lyophilised mucosa cells. 1.000 mg mucosa was weighted carefully on a microbalans and homogenised with 100.00 mg lactose. The ATP level was measured on 3.000 mg of this mixture.
ATP was measured following the firefly-bioluminescence system on a LKB Wallac 1250, fitted with a 1250 display. […]
For the blank experiment 200 µl Luciferine-Luciferase solution was mixed with 500 µl TRIS-EDTA buffer solution. The light emission was measured following the addition of standard amounts of ATP.
3.000 mg of the mucosa/lactose mixture was suspended in 800 µl TRIS-EDTA buffer solution. […] Known quantities of ATP were added.

blood glucose level [5] = experiment: Hollow suppositories with insulin, blood glucose versus intramuscular injection (set up 2); format: in vivo, rabbits; conditions: uncoupler in suppository mass (3 mg, 3 mg, 1.5 mg); insulin in physiological saline
Experimental: Therefore experiments were carried out on rabbits. Male rabbits were immobilised in a metal cage allowing free access to the anal region and the auricular arteries of both ears. In these experiments narcosis was not essential. The sampled blood volume was 0.5 ml.
Small hollow suppositories were made with dimensions ± 2 cm, φ 0.5 cm. The suppositories were filled with […] ™ (Novo Nordisk) 100 I.U./ml in the appropriate dilution with physiological saline. The anal region was secured with adhesive tape.
The following concentrations were used 0.1 I.U./kg body weight, 0.5 I.U./kg body weight, 1.0 I.U./kg body weight.
As the content of the suppository was approximately 0.6 ml, 450 µl (at the highest dose) of the Insulin solution was mixed with 150 µl normal saline.
For these experiments Insulin from bovine pancreas (activity 41.67 µg = 1 I.U.) Fluka was solved in 0.6 ml bidistilled water. The experiment was carried out as outlined above.

paracellular route = experiment: Blockade by TAP of the 1,8-dihydroxyanthraquinone-increased mucosal permeability (99mTc-EDTA); format: in vivo, Guinea pigs; conditions: TAP 80 mM pH 6.0 followed by 99mTc-EDTA; Fig. 4; p < 0.01
Experimental: 2,4,6-Triaminopyrimidine (TAP) was used to block the paracellular way. If the resorption of a non resorbable molecule ^99mTc-EDTA complex was enhanced by the addition of a mitochondrial uncoupler and blocked by TAP, then the route followed by the ^99mTc-EDTA complex was unequivocally identified as the paracellular one.
The same materials and methods were used as described in Example 1. However, instead of ^99mc-EDTA TAP was used followed by ^99mTc-EDTA.
100 mg TAP was solved in bidistilled water. The pH was adjusted to 6.0 with HCl 2 N and completed to 10.0 ml. Final concentration was 80 mM. To obtain a physiological osmolarity 16 mg sodium chloride was added.

[6] = test system: junctions of the colonic mucosa; experiment: Blockade of the paracellular route by anti-diarrhoeal drugs (99mTc-EDTA transfer lumen to blood); format: in vivo; conditions: in combination with DHA; Fig. 5
isolated mitochondria = experiment: Generation speed of ATP in isolated mitochondria (Luciferin-Luciferase); format: biochemical, Phaseolus aureus; conditions: 20 µl Loperamide HCl (5 mg/80 ml water); increasing concentrations DHA; N=15; Fig. 8
Experimental: Mitochondria were isolated from Phaseolus aureus. Beans were allowed to sprout at 28°C during 5 days in the dark. 40 g sprouts were used.
The plant material was homogenised at 3°C with a solution of 0.3M Mannitol, 1 mM Na2EDTA, 0.1% BSA, 0.05% Cysteine. The pH was adjusted to 7.2
During homogenisation 6 N KOH was added to keep the pH at 7.2.
The suspension was centrifuged at 2°C (2000 x g for 15 minutes). The pellet was removed and the supernatant centrifuged again during 20 minutes (8000 x g). The pellet was carefully resuspended in 1 ml of a solution (reaction medium) with 0.3M Mannitol, 10mM phosphate buffer, 10mM KCl, 5mM MgCl2, 0.1% BSA. The pH was adjusted at 7.2.
Mitochondrial quality was assessed by measuring the formation speed of ATP following a ADP injection. ATP was measured by L-Luciferin-Luciferase light emission in the LKB-Luminometer.
The measurement of ATP was carried out in a medium consisting of a 1/1 mixture of reaction medium and Luciferin-Luciferase buffer. The complex composition is : • 200 µl Luciferin-Luciferase solution • 400 µl TRIS.HCl 0.05 M - EDTA 2 mM pH 7.75 • 400 µl reaction medium as explained above • 20 µl mitochondrial suspension • 10 µl Succinate 10 mM pH 7.7 • 20 µl Loperamide HCl (5 mg/80 ml water) or water depending on the experimental set up 1,8 dihydroxyanthraquinone was used in a concentration of 2 mg/100 ml methanol.

[7] = 100 µl saturated solution in colon segment versus reference segment, Fig. 10

Compound: trigalloylglucose
- effect on the secretory effect of rhein (large intestine; perfused after rhein or together with rhein, Fig. 6, Fig. 7): inhibit completely the secretory effect of rhein

Compound: O=C(O)c1ccccc1O [salicylic acid]
- temperature rise (colon descendens; other tested mitochondrial uncouplers): show the same results
- colonic permeability [1]: similar, although less pronounced effect
- transfer from lumen to blood of 99mTc-EDTA [1]: significantly enhanced

Compound: O=C(O)c1cc(O)c2c(c1)C(=O)c1cccc(O)c1C2=O [rhein]
- solubility [2]: 0.952 µg/mL (≈ 3.35 µM)
- temperature rise (colon descendens; [7]): 0.36 °C
- Insulin absorption, of the effect obtained after an intramuscular injection (blood glucose level [3]): ~44%
- initial ATP concentration recovered ([4]; after 60 minutes): 67.1%
- initial ATP concentration remaining ([4]; after 90 minutes): 35.9%
- blood glucose fall, of the effect obtained after intramuscular injection of an identical dose (blood glucose level [5]): ~50%

Compound: COc1ccc2c(c1)c(CC(=O)O)c(C)n2C(=O)c1ccc(Cl)cc1 [Indomethacin]
- Insulin absorption, of the effect obtained after an intramuscular injection (blood glucose level [3]): ~44%
- blood glucose fall, of the effect obtained after intramuscular injection of an identical dose (blood glucose level [5]): ~50%

Compound: Nc1cc(N)nc(N)n1 [TAP, 2,4,6-Triaminopyrimidine]
- mucosal permeability following a 1,8-dihydroxyanthraquinone administration (paracellular route): nearly completely restored

Compound: O=C1c2cccc(O)c2C(=O)c2c(O)cccc21 [1,8-dihydroxyanthraquinone]
- temperature rise (colon descendens; [7]): 0.70 °C
- colonic permeability [1]: remarkable increase of colonic permeability
- transfer from lumen to blood of 99mTc-EDTA [1]: significantly enhanced
- radioactivity leaked from the colon and concentrated in the urine bladder ([1]; one hour after administration of the radioactive complex, 0.1% in food for one week): ~25%
- blood glucose fall, of the effect obtained after intramuscular injection of an identical dose (blood glucose level [5]): ~50%

Compound: CN(C)C(=O)C(CCN1CCC(O)(c2ccc(Cl)cc2)CC1)(c1ccccc1)c1ccccc1 [loperamide]
- effect on temperature rise following DHA administration (colon descendens; guinea pig, in vivo): antagonises the temperature rise
- transfer of 99mTc-EDTA complex from lumen to blood [6]: no longer transferred from lumen to blood
- protection against uncoupling effect of DHA on generation speed of ATP (isolated mitochondria): protects mitochondria in vitro against the uncoupling effect of anthraquinones

Compound: CN1CC[C@]23c4c5ccc(O)c4O[C@H]2[C@@H](O)C=C[C@H]3[C@H]1C5 [morphine]
- K+ concentration (large intestine; in vivo): completely antagonised
- effect on the secretory effect of rhein (large intestine; in vivo): counteracted the secretory effect of rhein
- effect on the secretory effect of rhein, prior perfusion (large intestine; in vivo): protects the large intestine from the secretory effect of rhein
